Measured values: PubChem BioAssay AID2060625 (Molecular Pharmacology Branch, DTP, NCI, 2025)
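Further: compound exposure lasted seven days before readout.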
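Wherever viability, T/C is given: 100% = DMSO vehicle control wells.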

Each compound was assayed on 186277-243-T-J2-PDC spheroids with HUVEC/MSC, viability (assay: Anticancer human tumor 186277-243-T-J2-PDC patient-derived colon adenocarcinoma cell line growth inhibition [CLK]). Conditions: curve of first compound; second compound 10 µM.
Method in brief: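 Multi-cell-type spheroids combined patient-derived tumor cells with HUVEC endothelial cells and human mesenchymal stem cells. Paired agents were dosed in half-log steps down from about clinical Cmax, or from 10 microM where Cmax was unknown.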
Compound `O=C(c1cc(Cc2n[nH]c(=O)c3ccccc23)ccc1F)N1CCN(C(=O)C2CC2)CC1` + CNC(=O)c1ccc(Nc2nc(OC3CCCC3)c3c(-c4ccc5nc(C)oc5c4)c[nH]c3n2)c(OC)c1 has an IC50 of under 31.6 nM. With `COC1C=CCC(C)C(C)S(=O)(=O)NC(=O)c2ccc3c(c2)N(CC2CCC21)CC1(CCCc2cc(Cl)ccc21)CO3` (stereo unspecified) + CN1CCN(c2cc(C(=O)Nc3cc4cc(-c5cnn(C)c5)ccc4cn3)ccn2)CC1 the IC50 was under 31.6 nM. In the case of `C#Cc1c(F)ccc2cc(O)cc(-c3ncc4c(N5CC6CCC(C5)N6)nc(OCC56CCCN5CC(F)C6)nc4c3F)c12` (stereo unspecified) + CNC(=O)c1ccc(Nc2nc(OC3CCCC3)c3c(-c4ccc5nc(C)oc5c4)c[nH]c3n2)c(OC)c1, the IC50 is reported as under 31.6 nM. `C=C(F)C(=O)N1CCN(c2nc(OCC3CCCN3C)nc3c2CCN(c2cccc4cccc(Cl)c24)C3)CC1CC#N` (stereo unspecified) + CN1CCN(c2cc(C(=O)Nc3cc4cc(-c5cnn(C)c5)ccc4cn3)ccn2)CC1 gave an IC50 of under 31.6 nM.

Same assay, conditions: second compound 0.0316 µM; first compound 0.00316 µM; stronger effect = lower value
With `COc1c(OCCCN2CCOCC2)ccc2c3n(c(=NC(=O)c4cnc(N)nc4)nc12)CCN3` + CNC(=O)c1ccc(Nc2nc(OC3CCCC3)c3c(-c4ccc5nc(C)oc5c4)c[nH]c3n2)c(OC)c1 the viability, T/C was 86.7%.

Same assay, conditions: second compound 0.0316 µM; first compound 0.01 µM; stronger effect = lower value
With `COc1c(OCCCN2CCOCC2)ccc2c3n(c(=NC(=O)c4cnc(N)nc4)nc12)CCN3` + CNC(=O)c1ccc(Nc2nc(OC3CCCC3)c3c(-c4ccc5nc(C)oc5c4)c[nH]c3n2)c(OC)c1 the viability, T/C was 93.3%.

Same assay, conditions: second compound 0.0316 µM; first compound 0.0316 µM; stronger effect = lower value
In the case of `COc1c(OCCCN2CCOCC2)ccc2c3n(c(=NC(=O)c4cnc(N)nc4)nc12)CCN3` + CNC(=O)c1ccc(Nc2nc(OC3CCCC3)c3c(-c4ccc5nc(C)oc5c4)c[nH]c3n2)c(OC)c1, the viability, T/C is reported as 47.4%. In the case of `O=C(c1cc(Cc2n[nH]c(=O)c3ccccc23)ccc1F)N1CCN(C(=O)C2CC2)CC1` + CNC(=O)c1ccc(Nc2nc(OC3CCCC3)c3c(-c4ccc5nc(C)oc5c4)c[nH]c3n2)c(OC)c1, the viability, T/C is reported as 129%. Work on `COC1C=CCC(C)C(C)S(=O)(=O)NC(=O)c2ccc3c(c2)N(CC2CCC21)CC1(CCCc2cc(Cl)ccc21)CO3` (stereo unspecified) + CN1CCN(c2cc(C(=O)Nc3cc4cc(-c5cnn(C)c5)ccc4cn3)ccn2)CC1 yielded a viability, T/C of 102%. `C#Cc1c(F)ccc2cc(O)cc(-c3ncc4c(N5CC6CCC(C5)N6)nc(OCC56CCCN5CC(F)C6)nc4c3F)c12` (stereo unspecified) + CNC(=O)c1ccc(Nc2nc(OC3CCCC3)c3c(-c4ccc5nc(C)oc5c4)c[nH]c3n2)c(OC)c1 showed a viability, T/C of 85.1%. `C=C(F)C(=O)N1CCN(c2nc(OCC3CCCN3C)nc3c2CCN(c2cccc4cccc(Cl)c24)C3)CC1CC#N` (stereo unspecified) + CN1CCN(c2cc(C(=O)Nc3cc4cc(-c5cnn(C)c5)ccc4cn3)ccn2)CC1 gave a viability, T/C of 84.2%.

Same assay, conditions: second compound 0.0316 µM; first compound 0.1 µM; stronger effect = lower value
Work on `COc1c(OCCCN2CCOCC2)ccc2c3n(c(=NC(=O)c4cnc(N)nc4)nc12)CCN3` + CNC(=O)c1ccc(Nc2nc(OC3CCCC3)c3c(-c4ccc5nc(C)oc5c4)c[nH]c3n2)c(OC)c1 yielded a viability, T/C of 20%. Compound `O=C(c1cc(Cc2n[nH]c(=O)c3ccccc23)ccc1F)N1CCN(C(=O)C2CC2)CC1` + CNC(=O)c1ccc(Nc2nc(OC3CCCC3)c3c(-c4ccc5nc(C)oc5c4)c[nH]c3n2)c(OC)c1 has a viability, T/C of 119%. `COC1C=CCC(C)C(C)S(=O)(=O)NC(=O)c2ccc3c(c2)N(CC2CCC21)CC1(CCCc2cc(Cl)ccc21)CO3` (stereo unspecified) + CN1CCN(c2cc(C(=O)Nc3cc4cc(-c5cnn(C)c5)ccc4cn3)ccn2)CC1 was tested, and the viability, T/C was 97.9%. Work on `C#Cc1c(F)ccc2cc(O)cc(-c3ncc4c(N5CC6CCC(C5)N6)nc(OCC56CCCN5CC(F)C6)nc4c3F)c12` (stereo unspecified) + CNC(=O)c1ccc(Nc2nc(OC3CCCC3)c3c(-c4ccc5nc(C)oc5c4)c[nH]c3n2)c(OC)c1 yielded a viability, T/C of 74.1%. With `C=C(F)C(=O)N1CCN(c2nc(OCC3CCCN3C)nc3c2CCN(c2cccc4cccc(Cl)c24)C3)CC1CC#N` (stereo unspecified) + CN1CCN(c2cc(C(=O)Nc3cc4cc(-c5cnn(C)c5)ccc4cn3)ccn2)CC1 the viability, T/C was 78.5%.

Same assay, conditions: second compound 0.0316 µM; first compound 0.316 µM; stronger effect = lower value
`COc1c(OCCCN2CCOCC2)ccc2c3n(c(=NC(=O)c4cnc(N)nc4)nc12)CCN3` + CNC(=O)c1ccc(Nc2nc(OC3CCCC3)c3c(-c4ccc5nc(C)oc5c4)c[nH]c3n2)c(OC)c1 gave a viability, T/C of 13.3%. Compound `O=C(c1cc(Cc2n[nH]c(=O)c3ccccc23)ccc1F)N1CCN(C(=O)C2CC2)CC1` + CNC(=O)c1ccc(Nc2nc(OC3CCCC3)c3c(-c4ccc5nc(C)oc5c4)c[nH]c3n2)c(OC)c1 has a viability, T/C of 113%. For `COC1C=CCC(C)C(C)S(=O)(=O)NC(=O)c2ccc3c(c2)N(CC2CCC21)CC1(CCCc2cc(Cl)ccc21)CO3` (stereo unspecified) + CN1CCN(c2cc(C(=O)Nc3cc4cc(-c5cnn(C)c5)ccc4cn3)ccn2)CC1, the viability, T/C was 103%. `C#Cc1c(F)ccc2cc(O)cc(-c3ncc4c(N5CC6CCC(C5)N6)nc(OCC56CCCN5CC(F)C6)nc4c3F)c12` (stereo unspecified) + CNC(=O)c1ccc(Nc2nc(OC3CCCC3)c3c(-c4ccc5nc(C)oc5c4)c[nH]c3n2)c(OC)c1 gave a viability, T/C of 42.3%. `C=C(F)C(=O)N1CCN(c2nc(OCC3CCCN3C)nc3c2CCN(c2cccc4cccc(Cl)c24)C3)CC1CC#N` (stereo unspecified) + CN1CCN(c2cc(C(=O)Nc3cc4cc(-c5cnn(C)c5)ccc4cn3)ccn2)CC1 was tested, and the viability, T/C was 115%.

Same assay, conditions: second compound 0.0316 µM; first compound 1 µM; stronger effect = lower value
In the case of `COc1c(OCCCN2CCOCC2)ccc2c3n(c(=NC(=O)c4cnc(N)nc4)nc12)CCN3` + CNC(=O)c1ccc(Nc2nc(OC3CCCC3)c3c(-c4ccc5nc(C)oc5c4)c[nH]c3n2)c(OC)c1, the viability, T/C is reported as 7.3%. Work on `O=C(c1cc(Cc2n[nH]c(=O)c3ccccc23)ccc1F)N1CCN(C(=O)C2CC2)CC1` + CNC(=O)c1ccc(Nc2nc(OC3CCCC3)c3c(-c4ccc5nc(C)oc5c4)c[nH]c3n2)c(OC)c1 yielded a viability, T/C of 109%. Work on `COC1C=CCC(C)C(C)S(=O)(=O)NC(=O)c2ccc3c(c2)N(CC2CCC21)CC1(CCCc2cc(Cl)ccc21)CO3` (stereo unspecified) + CN1CCN(c2cc(C(=O)Nc3cc4cc(-c5cnn(C)c5)ccc4cn3)ccn2)CC1 yielded a viability, T/C of 87.3%. Work on `C#Cc1c(F)ccc2cc(O)cc(-c3ncc4c(N5CC6CCC(C5)N6)nc(OCC56CCCN5CC(F)C6)nc4c3F)c12` (stereo unspecified) + CNC(=O)c1ccc(Nc2nc(OC3CCCC3)c3c(-c4ccc5nc(C)oc5c4)c[nH]c3n2)c(OC)c1 yielded a viability, T/C of 20.4%. In the case of `C=C(F)C(=O)N1CCN(c2nc(OCC3CCCN3C)nc3c2CCN(c2cccc4cccc(Cl)c24)C3)CC1CC#N` (stereo unspecified) + CN1CCN(c2cc(C(=O)Nc3cc4cc(-c5cnn(C)c5)ccc4cn3)ccn2)CC1, the viability, T/C is reported as 90.6%.
